Test results from PubChem BioAssay AID256 (DTP/NCI, 2004).
Several values for one entry are separate records, joined by “and”; a condition that tells them apart may be missing. Equal entries are not always repeated. Inconclusive results and toxic doses are left out.

Test system: CD2F1 mice, L1210 leukemia ip, survival T/C
Test: NCI In Vivo Anticancer Drug Screen. Data for tumor model L1210 Leukemia (intraperitoneal) in CD2F1 (CDF1) mice
Settings: higher = longer survival
Outline: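 Vehicle-treated tumor-bearing mice served as controls (C) for compound-treated mice (T). Reported figure is T divided by C.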

[1] = endpoint: mean survival time, dose: 100.0 mg/kg/injection, schedule: Q04DX003 (ip), vehicle: saline with Tween-80
[2] = endpoint: mean survival time, dose: 200.0 mg/kg/injection, schedule: Q04DX003 (ip), vehicle: saline with Tween-80
[3] = endpoint: mean survival time, dose: 400.0 mg/kg/injection, schedule: Q01DX009 (ip), vehicle: saline with Tween-80
[4] = endpoint: mean survival time, dose: 400.0 mg/kg/injection, schedule: Q04DX003 (ip), vehicle: saline with Tween-80
[5] = endpoint: mean survival time, dose: 25.0 mg/kg/injection, schedule: Q01DX009 (ip), vehicle: saline
[6] = endpoint: mean survival time, dose: 50.0 mg/kg/injection, schedule: Q01DX009 (ip), vehicle: saline
[7] = endpoint: mean survival time, dose: 100.0 mg/kg/injection, schedule: Q01DX001 (ip), vehicle: saline
[8] = endpoint: mean survival time, dose: 200.0 mg/kg/injection, schedule: Q01DX001 (ip), vehicle: saline
[9] = endpoint: mean survival time, dose: 200.0 mg/kg/injection, schedule: Q04DX003 (ip), vehicle: saline
[10] = endpoint: mean survival time, dose: 400.0 mg/kg/injection, schedule: Q01DX001 (ip), vehicle: saline
[11] = endpoint: mean survival time, dose: 400.0 mg/kg/injection, schedule: Q04DX003 (ip), vehicle: saline
[12] = endpoint: mean survival time, dose: 100.0 mg/kg/injection, schedule: Q01DX009 (ip), vehicle: saline with Tween-80
[13] = endpoint: mean survival time, dose: 200.0 mg/kg/injection, schedule: Q01DX009 (ip), vehicle: saline with Tween-80

For `CCOC(=O)c1[nH]cnc1/N=N/N(C)CCO`, the T/C [1] was 106 % of control, the T/C [2] was 111 % of control and the T/C (endpoint: mean survival time, dose: 264.0 mg/kg/injection, schedule: Q01DX009 (ip), vehicle: saline sonified) was 160 % of control. For the same compound, the T/C (endpoint: mean survival time, dose: 400.0 mg/kg/injection, schedule: Q01DX009 (ip), vehicle: saline sonified) was 162 % of control, the T/C [3] was 150 % of control and the T/C [4] was 109 % of control. For the same compound, the T/C (endpoint: mean survival time, dose: 600.0 mg/kg/injection, schedule: Q01DX009 (ip), vehicle: saline sonified) was 165 % of control.
With `CC(=O)N1CCCC2=C1CCCCCC2` the T/C (endpoint: mean survival time, dose: 12.5 mg/kg/injection, schedule: Q04DX003 (ip), vehicle: saline) was 101 % of control, the T/C [5] was 110 % of control and the T/C (endpoint: mean survival time, dose: 25.0 mg/kg/injection, schedule: Q04DX003 (ip), vehicle: saline) was 88 % of control. For the same compound, the T/C [6] was 115 % of control, the T/C (endpoint: mean survival time, dose: 50.0 mg/kg/injection, schedule: Q04DX003 (ip), vehicle: saline) was 88 % of control and the T/C [7] was 96 % of control. The T/C (endpoint: mean survival time, dose: 100.0 mg/kg/injection, schedule: Q01DX009 (ip), vehicle: saline) was 113 % of control, the T/C (endpoint: mean survival time, dose: 100.0 mg/kg/injection, schedule: Q04DX002 (ip), vehicle: saline) was 102 % of control and the T/C (endpoint: mean survival time, dose: 100.0 mg/kg/injection, schedule: Q04DX003 (ip), vehicle: saline) was 90 % of control. The T/C [8] was 102 % of control, the T/C (endpoint: mean survival time, dose: 200.0 mg/kg/injection, schedule: Q01DX009 (ip), vehicle: saline) was 110 % of control and the T/C (endpoint: mean survival time, dose: 200.0 mg/kg/injection, schedule: Q04DX002 (ip), vehicle: saline) was 98 % of control. For the same compound, the T/C [9] was 95 % of control, the T/C [10] was 93 % of control and the T/C (endpoint: mean survival time, dose: 400.0 mg/kg/injection, schedule: Q04DX002 (ip), vehicle: saline) was 95 % of control. For the same compound, the T/C [11] was 91 % of control, the T/C (endpoint: mean survival time, dose: 500.0 mg/kg/injection, schedule: Q04DX002 (ip), vehicle: saline) was 98 % of control and the T/C (endpoint: mean survival time, dose: 600.0 mg/kg/injection, schedule: Q01DX001 (ip), vehicle: saline) was 93 % of control.
For `COC(=O)c1cc(NS(=O)(=O)c2ccc(N)c([N+](=O)[O-])c2)cc(C(=O)OC)c1`, the T/C [12] was 98 % of control, the T/C [13] was 95 % of control and the T/C [3] was 96 % of control.
`CSc1nn(C2OC(CO)C(O)C2O)c(=O)[nH]c1=O` (stereo unspecified) was tested, and the T/C (endpoint: mean survival time, dose: 12.5 mg/kg/injection, schedule: Q01DX005 (ip), vehicle: distilled water + Tween-80) was 102 % of control, the T/C (endpoint: mean survival time, dose: 25.0 mg/kg/injection, schedule: Q01DX005 (ip), vehicle: distilled water + Tween-80) was 95 % of control and the T/C (endpoint: mean survival time, dose: 50.0 mg/kg/injection, schedule: Q01DX005 (ip), vehicle: distilled water + Tween-80) was 98 % of control. For the same compound, the T/C (endpoint: mean survival time, dose: 100.0 mg/kg/injection, schedule: Q01DX005 (ip), vehicle: distilled water + Tween-80) was 102 % of control and the T/C (endpoint: mean survival time, dose: 200.0 mg/kg/injection, schedule: Q01DX005 (ip), vehicle: distilled water + Tween-80) was 104 % of control.
In the case of `O=CNc1ccc2c(c1)C(O)c1ccccc1-2` (stereo unspecified), the T/C (endpoint: mean survival time, dose: 62.5 mg/kg/injection, schedule: Q04DX003 (ip), vehicle: saline with Tween-80) is reported as 103 % of control, the T/C (endpoint: mean survival time, dose: 125.0 mg/kg/injection, schedule: Q04DX003 (ip), vehicle: saline with Tween-80) is reported as 98 % of control and the T/C (endpoint: mean survival time, dose: 250.0 mg/kg/injection, schedule: Q04DX003 (ip), vehicle: saline with Tween-80) is reported as 97 % of control.
`CC12CCC3C(CCC4CC(OC(=O)Cc5ccc(N(CCCl)CCCl)cc5)CCC43C)C1CCC(=O)N2` (stereo unspecified) was tested, and the T/C (endpoint: mean survival time, dose: 0.75 mg/kg/injection, schedule: Q01DX009 (ip), vehicle: saline with Tween-80) was 98 % of control, the T/C (endpoint: mean survival time, dose: 1.5 mg/kg/injection, schedule: Q01DX009 (ip), vehicle: saline with Tween-80) was 102 % of control and the T/C (endpoint: mean survival time, dose: 3.0 mg/kg/injection, schedule: Q01DX009 (ip), vehicle: saline with Tween-80) was 108 % of control. For the same compound, the T/C (endpoint: mean survival time, dose: 6.0 mg/kg/injection, schedule: Q01DX009 (ip), vehicle: saline with Tween-80) was 112 % of control, the T/C (endpoint: mean survival time, dose: 12.0 mg/kg/injection, schedule: Q01DX009 (ip), vehicle: saline with Tween-80) was 122 % of control and the T/C (endpoint: median survival time, dose: 3.0 mg/kg/injection, schedule: Q01DX009 (ip), vehicle: saline with Tween-80) was 115 % of control. The T/C (endpoint: median survival time, dose: 6.0 mg/kg/injection, schedule: Q01DX009 (ip), vehicle: saline with Tween-80) was 119 % of control, the T/C (endpoint: median survival time, dose: 24.0 mg/kg/injection, schedule: Q01DX009 (ip), vehicle: saline with Tween-80) was 166 % of control and 168 % of control and the T/C (endpoint: median survival time, dose: 48.0 mg/kg/injection, schedule: Q01DX009 (ip), vehicle: saline with Tween-80) was 98 % of control and 111 % of control.
With `CN(Cc1cnc2nc(N)nc(N)c2n1)c1ccc(C(=O)NC(CCC(=O)NCc2ccccc2)C(=O)O)cc1` (stereo unspecified) the T/C (endpoint: mean survival time, dose: 5.0 mg/kg/injection, schedule: Q01DX009 (ip), vehicle: sodium bicarbonate) was 108 % of control and the T/C (endpoint: mean survival time, dose: 10.0 mg/kg/injection, schedule: Q01DX009 (ip), vehicle: sodium bicarbonate) was 112 % of control.
For `Nc1nc(-c2cccc([N+](=O)[O-])c2)c(N=Nc2ccccc2)s1`, the T/C (endpoint: mean survival time, dose: 100.0 mg/kg/injection, schedule: Q01DX001 (ip), vehicle: saline with Tween-80) was 95 % of control and the T/C (endpoint: mean survival time, dose: 200.0 mg/kg/injection, schedule: Q01DX001 (ip), vehicle: saline with Tween-80) was 100 % of control.
With `COc1cc(OC)c(NC(=O)Nc2ccccc2C(N)=O)cc1Cl` the T/C (endpoint: mean survival time, dose: 50.0 mg/kg/injection, schedule: Q01DX009 (ip), vehicle: saline with Tween-80) was 111 % of control, the T/C [12] was 96 % of control and the T/C [13] was 100 % of control.
In the case of `O=C(O)c1cccnc1Cl`, the T/C (endpoint: mean survival time, dose: 75.0 mg/kg/injection, schedule: Q01DX009 (ip), vehicle: Klucel (hydroxypropylcellulose) (HPC)) is reported as 111 % of control and the T/C (endpoint: mean survival time, dose: 150.0 mg/kg/injection, schedule: Q01DX009 (ip), vehicle: Klucel (hydroxypropylcellulose) (HPC)) is reported as 94 % of control.
`CC1=CC(=O)C(C(C)C)CC1=O` (stereo unspecified) was tested, and the T/C (endpoint: mean survival time, dose: 6.25 mg/kg/injection, schedule: Q01DX009 (ip), vehicle: saline with Tween-80) was 98 % of control, the T/C (endpoint: mean survival time, dose: 12.5 mg/kg/injection, schedule: Q01DX009 (ip), vehicle: saline with Tween-80) was 102 % of control and the T/C (endpoint: mean survival time, dose: 25.0 mg/kg/injection, schedule: Q01DX009 (ip), vehicle: saline with Tween-80) was 95 % of control.
`NC(=O)C1(N2CCCCC2)CCN(CCCC(=O)c2ccc(F)cc2)CC1` was tested, and the T/C [5] was 101 % of control and the T/C [6] was 101 % of control.
`COc1cc2cc3c4cc(OC)c(OC)cc4cc[n+]3c(C)c2cc1OC` was tested, and the T/C [7] was 120 % of control, the T/C (endpoint: mean survival time, dose: 132.0 mg/kg/injection, schedule: Q04DX003 (ip), vehicle: saline sonified) was 122 % of control and the T/C [8] was 122 % of control. For the same compound, the T/C (endpoint: mean survival time, dose: 200.0 mg/kg/injection, schedule: Q04DX003 (ip), vehicle: saline sonified) was 114 % of control, the T/C [9] was 122 % of control and the T/C (endpoint: mean survival time, dose: 300.0 mg/kg/injection, schedule: Q04DX003 (ip), vehicle: saline sonified) was 123 % of control. The T/C [10] was 109 % of control and the T/C [11] was 116 % of control.
`Cc1ccc(S(=O)(=O)N/N=C/C(Br)=C(/Br)C(=O)O)cc1` was tested, and the T/C (endpoint: mean survival time, dose: 3.12 mg/kg/injection, schedule: Q01DX009 (ip), vehicle: Klucel (hydroxypropylcellulose) (HPC)) was 104 % of control, the T/C (endpoint: mean survival time, dose: 6.25 mg/kg/injection, schedule: Q01DX009 (ip), vehicle: Klucel (hydroxypropylcellulose) (HPC)) was 112 % of control and the T/C (endpoint: mean survival time, dose: 12.5 mg/kg/injection, schedule: Q01DX009 (ip), vehicle: Klucel (hydroxypropylcellulose) (HPC)) was 113 % of control. The T/C (endpoint: mean survival time, dose: 25.0 mg/kg/injection, schedule: Q01DX009 (ip), vehicle: Klucel (hydroxypropylcellulose) (HPC)) was 115 % of control and 105 % of control, the T/C (endpoint: mean survival time, dose: 50.0 mg/kg/injection, schedule: Q01DX009 (ip), vehicle: Klucel (hydroxypropylcellulose) (HPC)) was 113 % of control and 102 % of control and the T/C (endpoint: mean survival time, dose: 100.0 mg/kg/injection, schedule: Q01DX009 (ip), vehicle: Klucel (hydroxypropylcellulose) (HPC)) was 120 % of control and 108 % of control. For the same compound, the T/C (endpoint: mean survival time, dose: 200.0 mg/kg/injection, schedule: Q01DX009 (ip), vehicle: Klucel (hydroxypropylcellulose) (HPC)) was 104 % of control.
For `c1ccc(-c2cc(-c3ccccc3)n(-c3ccccc3)c2-c2ccccc2)cc1`, the T/C [12] was 88 % of control, the T/C [13] was 94 % of control and the T/C [3] was 88 % of control.
In the case of `O=C1CCN2CCc3c([nH]c4ccccc34)C2C1` (stereo unspecified), the T/C [1] is reported as 101 % of control, the T/C [2] is reported as 101 % of control and the T/C [4] is reported as 109 % of control.
In the case of `NC(=O)c1ccc[n+](Cc2c(Cl)cccc2Cl)c1`, the T/C [1] is reported as 105 % of control, the T/C (endpoint: median survival time, dose: 0.75 mg/kg/injection, schedule: Q01DX009 (ip), vehicle: saline) is reported as 102 % of control and the T/C (endpoint: median survival time, dose: 1.5 mg/kg/injection, schedule: Q01DX009 (ip), vehicle: saline) is reported as 101 % of control. The T/C (endpoint: median survival time, dose: 3.0 mg/kg/injection, schedule: Q01DX009 (ip), vehicle: saline) was 109 % of control, the T/C (endpoint: median survival time, dose: 6.0 mg/kg/injection, schedule: Q01DX009 (ip), vehicle: saline) was 102 % of control and the T/C (endpoint: median survival time, dose: 12.0 mg/kg/injection, schedule: Q01DX009 (ip), vehicle: saline) was 102 % of control.
